Laboratory results as given in ChEMBL document CHEMBL4699511, “Cedrol, a Sesquiterpene Alcohol, Enhances the Anticancer Efficacy of Temozolomide in Attenuating Drug Resistance via Regulation of the DNA Damage Response and MGMT Expression” (J Nat Prod, 2020).
Calls of active or inactive are those of the source. No cut-off for these calls is given here.

Experiments:
DBTRG-05MG [1] = assay: Synergistic cytotoxicity against human DBTRG-05MG cells assessed as combination index at 134.9 uM after 48 hrs in presence of 206 uM TMZ by MTT assay; assay type: functional
RG2 [2] = assay: Synergistic cytotoxicity against rat RG2 cells assessed as combination index at 89.9 uM after 48 hrs in presence of 309 uM TMZ by MTT assay; assay type: functional
[3] = Synergistic cytotoxicity against rat CTX TNA2 cells assessed as combination index at 134.9 uM after 48 hrs in presence of 103 uM TMZ by MTT assay; assay type: cell-based; conditions: ctx tna2, 48 h
DBTRG-05MG [4] = assay: Induction of cell cycle arrest in human DBTRG-05MG cells assessed as accumulation at S phase at 112.4 uM after 12 hrs in presence of TMZ by propidium iodide staining based flow cytometric analysis (reference value: 22.76 +/- 1.56%); assay type: functional
RG2 [5] = assay: Induction of cell cycle arrest in rat RG2 cells assessed as CyclinB1 expression at 112.4 uM after 48 hrs by Western blot analysis (reference value: 1); assay type: functional
[6] = Effect on p38 expression in human DBTRG-05MG cells at 112.4uM after 48 hrs in presence of TMZ by Western blot analysis (reference value: 1); assay type: functional
RG2 [7] = assay: Induction of DNA damage in rat RG2 cells assessed as ATM phosphorylation at ser1981 residues at 112.4 uM after 48 hrs by Western blot analysis (reference value: 1); assay type: functional
DBTRG-05MG [8] = assay: Potentiation of TMZ-induced antitumor activity against human DBTRG-05MG cells xenografted in BALB/c nude mouse assessed as reduction in tumor growth at 75 mg/kg, sc co-treated with TMZ for 18 days by H and E staining-based bright field microscopic analysis; assay type: functional, organism-based; conditions: time 18.0 day
[9] = Toxicity in BALB/c mouse xenografted with DBTRG-05MG cells assessed as reduction in body weight at 5 mg/kg, ip after 5 days measured every 2 days; assay type: organism-based; conditions: in vivo, 120 h, time 5 day
DBTRG-05MG [10] = assay: Induction of cell cycle arrest in human DBTRG-05MG cells assessed as accumulation at G2/M phase at 206 uM after 6 hrs by propidium iodide staining based flow cytometric analysis (reference value: 30.08 +/- 0.1%); assay type: functional
RG2 [11] = assay: Induction of cell cycle arrest in rat RG2 cells assessed as accumulation at S phase at 206 uM after 12 hrs by propidium iodide staining based flow cytometric analysis (reference value: 20.15 +/- 2.44%); assay type: functional
DBTRG-05MG [12] = assay: Induction of apoptosis in human DBTRG-05MG cells assessed as cleaved caspace-3 expression at 206 uM after 48 hrs by Western blot analysis (reference value: 1); assay type: functional

C[C@@H]1CC[C@H]2C(C)(C)[C@H]3C[C@@]12CC[C@@]3(C)O [CEDROL]
CI (DBTRG-05MG [1]): 0.59 | CI (RG2 [2]): 1.04 | CI [3]: 1.23 | Activity (DBTRG-05MG [4]): 16.75% | fold change (FC) (RG2 [5]): 0.5 | fold change (FC) [6]: 0.8 | fold change (FC) (RG2 [7]): 1 | Activity (DBTRG-05MG [8]): Active

Cn1nnc2c(C(N)=O)ncn2c1=O [TEMOZOLOMIDE]
Activity [9]: Non-Toxic | Activity (DBTRG-05MG [10]): 34.67% | Activity (RG2 [11]): 22.12% | fold change (FC) (DBTRG-05MG [12]): 3.3
